Source: patent publication US10022453B2 (BAYER PHARMA AKTIENGESELLSCHAFT, priority 2013, dated 2018)

What was measured:
NCI-H292 = experiment: Cytotoxic effects, MTT assay; assay type: cell-based; settings: Homo sapiens, 72 h incubation
Protocol: The cells are cultivated by a standard method, as indicated in the […] (ATCC) for the respective cell lines.
At the end of the selected incubation time, the MTT reagent is incubated with the cells for 4 h, followed by lysis of the cells overnight by addition of the detergent. […] The proliferation of cells which were not treated with test substance but were otherwise identically treated was defined as the 100% figure.

[1] = target: T1, human kinesin spindle protein KSP/Eg5 (Homo sapiens, UniProt P52732); experiment: Inhibition of the kinesin spindle protein KSP/Eg5 (ATPase, malachite green); assay type: biochemical; settings: 10 nM KSP motor domain, 500 μM ATP, 2 h RT
T1 construct: The motor domain of the human kinesin spindle protein KSP/Eg5; purchased tebu-bio/Cytoskeleton Inc 027EG01-XL
T1 sequence (P52732 18-359 limits assumed): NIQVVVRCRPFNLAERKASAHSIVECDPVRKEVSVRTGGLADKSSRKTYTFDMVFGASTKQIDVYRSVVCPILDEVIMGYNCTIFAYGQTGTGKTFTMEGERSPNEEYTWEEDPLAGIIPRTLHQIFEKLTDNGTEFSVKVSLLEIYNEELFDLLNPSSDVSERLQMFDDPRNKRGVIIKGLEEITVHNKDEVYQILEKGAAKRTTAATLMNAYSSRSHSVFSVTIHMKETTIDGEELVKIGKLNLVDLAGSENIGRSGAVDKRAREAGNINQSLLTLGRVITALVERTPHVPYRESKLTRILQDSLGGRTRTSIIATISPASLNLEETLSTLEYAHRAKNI
Outline: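 KSP/Eg5 motor domain (10 nM) preincubated 5 min at RT with 50 μg/ml taxol-stabilized bovine or porcine microtubules in 15 mM PIPES pH 6.8, 5 mM MgCl2, 10 mM DTT. IC50 = mean of three experiments.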

[2] = Cell permeability, flux assay using Caco-2 cells; settings: human, Caco-2

Structure (SMILES)	IC50 (NCI-H292) [nM]	IC50 [1] [nM]	Papp B→A at 2 h [2] [×10⁻⁶ cm/s]	efflux ratio at 2 h [2]
CC(C)(C)[C@H](c1nn(-c2cc(F)ccc2F)cc1Cc1ccccc1)N(CC[C@H](N)C(=O)NCCNC(=O)CN1C(=O)CC(SC[C@H](N)C(=O)O)C1=O)C(=O)CO.O=C(O)C(F)(F)F (stereo partly drawn) [Example 131, S-[1-(2-{[2-({(2S)-2-Amino-4-[{(1R)-1-[4-benzyl-1-(2,5-difluorophenyl)-1H-pyrazol-3-yl]-2,2-dimethylpropyl}(glycoloyl)amino]butanoyl}amino)ethyl]amino}-2-oxoethyl)-2,5-dioxopyrrolidin-3-yl]-L-cysteine/trifluoroacetic acid (1:1)]	≥ 500	1.24	0.9	10
C[C@H](NC(=O)CCNC(=O)[C@@H](N)CCN(C(=O)CO)[C@@H](c1nn(-c2cc(F)ccc2F)cc1Cc1ccccc1)C(C)(C)C)C(=O)N[C@@H](CCCNC(N)=O)C(=O)Nc1ccc(N2C(=O)CC(SC[C@H](N)C(=O)O)C2=O)cc1.O=C(O)C(F)(F)F (stereo partly drawn) [Example 132, N-{(2S)-2-Amino-4-[{(1R)-1-[4-benzyl-1-(2,5-difluorophenyl)-1H-pyrazol-3-yl]-2,2-dimethylpropyl}(glycoloyl)amino]butanoyl}-beta-alanyl-L-alanyl-N-[4-(3-{[(2R)-2-amino-2-carboxyethyl]sulphanyl}-2,5-dioxopyrrolidin-1-yl)phenyl]-N^5-carbamoyl-L-ornithinamide/trifluoroacetic acid (1:1)]	≥ 500	1.65	0.16	1
CC(C)(C)[C@H](c1cc(-c2cc(F)ccc2F)cn1Cc1ccccc1)N(CC[C@H](N)C(=O)NCCC(=O)NCCN1C(=O)CC(SC[C@H](N)C(=O)O)C1=O)C(=O)CO.O=C(O)C(F)(F)F (stereo partly drawn) [Example 133, S-(1-{2-[(N-{(2S)-2-Amino-4-[{(1R)-1-[1-benzyl-4-(2,5-difluorophenyl)-1H-pyrrol-2-yl]-2,2-dimethylpropyl}(glycoloyl)amino]butanoyl}-beta-alanyl)amino]ethyl}-2,5-dioxopyrrolidin-3-yl)-L-cysteine/trifluoroacetic acid (1:1)]	155	4.13	0.43	6
CC(C)[C@H](NC(=O)CCCCCN1C(=O)CC(SC[C@H](N)C(=O)O)C1=O)C(=O)N[C@@H](CCCNC(N)=O)C(=O)N[C@@H](CCCCNC(=O)[C@@H](N)CCN(C(=O)CO)[C@@H](c1nn(-c2cc(F)ccc2F)cc1Cc1ccccc1)C(C)(C)C)C(=O)O (stereo partly drawn) [Example 134, N-[6-(3-{[(2R)-2-Amino-2-carboxyethyl]sulphanyl}-2,5-dioxopyrrolidin-1-yl)hexanoyl]-L-valyl-N^5-carbamoyl-L-ornithyl-N^6-{(2S)-2-amino-4-[{(1R)-1-[4-benzyl-1-(2,5-difluorophenyl)-1H-pyrazol-3-yl]-2,2-dimethylpropyl}(glycoloyl)amino]butanoyl}-L-lysine/trifluoroacetic acid (1:1)]	≥ 500	4.35	0.29	0.5
CC(C)(C)[C@H](c1nn(-c2cc(F)ccc2F)cc1Cc1ccccc1)N(CC[C@H](N)C(=O)NCCNC(=O)CSC[C@H](N)C(=O)O)C(=O)CO.O=C(O)C(F)(F)F [Example 136, S-(2-{[2-({(2S)-2-Amino-4-[{(1R)-1-[4-benzyl-1-(2,5-difluorophenyl)-1H-pyrazol-3-yl]-2,2-dimethylpropyl}(glycoloyl)amino]butanoyl}amino)ethyl]amino}-2-oxoethyl)-L-cysteine/trifluoroacetic acid (1:1)]	≥ 500	0.328	0.91	8.5
CC(C)(C)[C@H](c1nn(-c2cc(F)ccc2F)cc1Cc1ccccc1)N(CC[C@H](N)C(=O)NNC(=O)CCCCCN1C(=O)CC(SC[C@H](N)C(=O)O)C1=O)C(=O)CO.O=C(O)C(F)(F)F (stereo partly drawn) [Example 137, S-{1-[6-(2-{(2S)-2-Amino-4-[{(1R)-1-[4-benzyl-1-(2,5-difluorophenyl)-1H-pyrazol-3-yl]-2,2-dimethylpropyl}(glycoloyl)amino]butanoyl}hydrazino)-6-oxohexyl]-2,5-dioxopyrrolidin-3-yl}-L-cysteine/trifluoroacetic acid (1:1)]	≥ 500	0.778	1.7	19
CC(C)(C)[C@H](c1cc(-c2cc(F)ccc2F)cn1Cc1ccccc1)N(CC[C@H](N)C(=O)NCCN1C(=O)CC(SC[C@H](N)C(=O)O)C1=O)C(=O)CO.O=C(O)C(F)(F)F.O=C(O)C(F)(F)F (stereo partly drawn) [Example 139, S-{(3R/S)-1-[2-({(2S)-2-amino-4-[{(1R)-1-[1-benzyl-4-(2,5-difluorophenyl)-1H-pyrrol-2-yl]-2,2-dimethylpropyl}(glycoloyl)amino]butanoyl}amino)ethyl]-2,5-dioxopyrrolidin-3-yl}-L-cysteine/trifluoroacetic acid (1:2)]	134	1.82	2.1	7.7
CC(C)(C)[C@H](c1cc(-c2cc(F)ccc2F)cn1Cc1ccccc1)N(CCCN)C(=O)CSCCCCCC(=O)NCCN1C(=O)CC(SC[C@H](N)C(=O)O)C1=O.O=C(O)C(F)(F)F.O=C(O)C(F)(F)F (stereo partly drawn) [Example 141, S-[(3R/S)-1-(2-{[6-({2-[(3-aminopropyl) {(1R)-1-[1-benzyl-4-(2,5-difluorophenyl)-1H-pyrrol-2-yl]-2,2-dimethylpropyl}amino]-2-oxoethyl}sulphanyl)hexanoyl]amino}ethyl)-2,5-dioxopyrrolidin-3-yl]-L-cysteine/trifluoroacetic acid (1:2)]	16.1	0.902	3	35
CC(C)(C)[C@H](c1cc(-c2cc(F)ccc2F)cn1Cc1ccccc1)N(CC[C@H](N)C(=O)N[C@H]1CC[C@@H](C(=O)NCCN2C(=O)CC(SC[C@H](N)C(=O)O)C2=O)C1)C(=O)CO.O=C(O)C(F)(F)F (stereo partly drawn) [Example 157, S-{1-[2-({[(1R,3S)-3-({(2S)-2-Amino-4-[{(1R)-1-[1-benzyl-4-(2,5-difluorophenyl)-1H-pyrrol-2-yl]-2,2-dimethylpropyl}(glycoloyl)amino]butanoyl}amino)cyclopentyl]carbonyl}amino)ethyl]-2,5-dioxopyrrolidin-3-yl}-L-cysteine/trifluoroacetic acid (1:1)]	≥ 500	9.61	0.77	7.2
C[C@@H](NC(=O)[C@@H](N)CCN(C(=O)CO)[C@@H](c1nc(-c2cc(F)ccc2F)cn1Cc1ccccc1)C(C)(C)C)C(=O)NCCCC[C@H](N)C(=O)O.O=C(O)C(F)(F)F [Example 159, N^6-(N-{(2S)-2-Amino-4-[{(1R)-1-[1-benzyl-4-(2,5-difluorophenyl)-1H-imidazol-2-yl]-2,2-dimethylpropyl}(glycoloyl)amino]butanoyl}-D-alanyl)-L-lysine/trifluoroacetic acid (1:1)]	114	0.311	0.7	6.1
